Reference: PubChem BioAssay (NCI)
Where “and” joins values, the source holds several entries; their conditions need not be identical. Equal values may be shown once.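 Values below derive from 48-hour exposures of cells grown in 96-well plates, with endpoints linearly interpolated between the two concentrations bracketing the appropriate inhibition level. GI50 is the concentration that inhibits growth by half. TGI denotes the concentration required for complete inhibition of growth.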

Tests used:
Assay in all cases: NCI-60 cell line screen, 48 h
MALME-3M melanoma = test system: MALME-3M melanoma
BT-549 breast = test system: BT-549 breast
K-562 leukemia = test system: K-562 leukemia
SK-MEL-5 melanoma = test system: SK-MEL-5 melanoma
CCRF-CEM leukemia = test system: CCRF-CEM leukemia
UO-31 renal = test system: UO-31 renal
SF-295 CNS = test system: SF-295 CNS
MDA-MB-435 = test system: MDA-MB-435
786-0 renal = test system: 786-0 renal
COLO 205 colon = test system: COLO 205 colon

Structure (SMILES) | GI50 (MALME-3M melanoma) [µM] | TGI (MALME-3M melanoma) [µM] | GI50 (BT-549 breast) | TGI (BT-549 breast) [µM] | GI50 (K-562 leukemia) [µM] | TGI (K-562 leukemia) [µM] | GI50 (SK-MEL-5 melanoma) | TGI (SK-MEL-5 melanoma) [µM] | GI50 (CCRF-CEM leukemia) | TGI (CCRF-CEM leukemia) [µM] | GI50 (UO-31 renal) | TGI (UO-31 renal) [µM] | GI50 (SF-295 CNS) | TGI (SF-295 CNS) [µM] | GI50 (MDA-MB-435) [µM] | TGI (MDA-MB-435) | GI50 (786-0 renal) | TGI (786-0 renal) | GI50 (COLO 205 colon) | TGI (COLO 205 colon) [µM]
C=C1C(=O)O[C@H]2[C@H]1CC/C(Cn1cc(-c3ccccc3)nn1)=C\CC[C@@]1(C)O[C@@H]21 | 1.17 | 2.84 | 2.65 µM | 8.97 | 1.76 | 8.49 | 7.32 µM | 13.9 | 0.992 µM | 4.95 | 0.87 µM | 1.96 | 7.88 µM | 15.4 | 2.37 | 9.18 µM | 2.63 µM | 8.79 µM | 1.08 µM | 2.36
C[C@H]1CCC/C=C/[C@@H]2C[C@H](O)C[C@H]2[C@H](O)[C@@H](S(=O)CCN(C)C)CC(=O)O1 (some centres undefined) | 0.174 | 0.42 | 0.202 µM |  | 0.633 | > 100 | 0.0374 µM | 0.131 | 0.388 µM | > 100 | 0.184 µM | > 100 | 0.524 µM | > 100 | 0.193 | > 100 µM | 0.0416 µM |  | 0.107 µM | 0.876
CC1(C)OCC(CO)(Nc2nc(N3CC3)nc(N3CC3)n2)CO1 |  | 42.1 |  | 93.5 |  | > 100 |  | 22.1 |  | > 83.4 |  | 23.1 |  | 20.3 |  | 46.4 µM |  | 18.7 µM |  | 60.9
Cc1[nH]c(/C=C2\C(=O)Nc3ccc(F)cc32)c(C)c1C(=O)NC[C@H](O)CN1CCOCC1 | 4.21 | > 10 | 6.47 µM | > 10 | 4.96 | > 10 | 4.04 µM | > 10 | 0.0624 µM | > 10 | 1.47 µM | > 10 | > 10 µM | > 10 | 3.2 | > 10 µM | 4.91 µM | > 10 µM | 3.41 µM | > 10
COc1ccc(/C=C\c2cc(OC)c(OC)c(OC)c2)cc1OCC(=O)Nc1nc2ccc(C(F)(F)F)cc2s1 | > 100 | > 100 | 5.23 µM | > 100 | 3.3 | > 100 | 2.84 µM | 13.9 | 4.27 µM | > 100 | 3.59 µM | > 100 | 3.36 µM | > 100 | 1.84 | 5.91 µM | 6.69 µM | > 100 µM | 17.1 µM | 68
COc1c(O)ccc2c1CN1CCc3cc4c(cc3C1C2)OCO4 (centres undefined) |  | > 100 |  | > 100 |  | > 100 |  | > 100 |  | > 100 |  | > 100 |  | > 96.6 |  | > 60.9 µM |  | > 100 µM |  | > 100
O=C1CCC2(C=C(Br)C(=O)C(Br)=C2)O1 | 2.07 | 4.67 | 13.6 µM | 26.7 | 2.81 | 21.7 | 16.4 µM | 30 | 1.97 µM | 6.25 | 5.54 µM | 11.4 | 15.9 µM | 31.7 | 4.84 | 11.3 µM | 17 µM | 30.8 µM | 1.52 µM | 2.98
CCN(CC)CCCCCCCNc1c2ccc(Cl)cc2nc2ccc(OC)cc12 | 2.05 | 4.1 | 1.68 µM | 3.28 | 0.258 | 0.835 | 1.68 µM | 3.09 | 0.619 µM | 3.89 | 0.545 µM | 2.03 | 0.701 µM | 2.37 | 1.43 | 3.16 µM | 0.902 µM | 2.35 µM | 1.09 µM | 2.48
Cc1ccc2c(=O)c3cccc(CC(=O)O)c3oc2c1C | > 100 | > 100 | > 100 µM | > 100 | > 100 | > 100 | > 100 µM | > 100 | > 100 µM | > 100 | > 100 µM | > 100 | > 100 µM | > 100 | > 100 | > 100 µM | > 100 µM | > 100 µM | > 100 µM | > 100
COc1ccc(-c2cn[nH]c2-c2cc(OC)c(OC)c(OC)c2)cc1N |  | > 100 | < 0.01 µM and 0.0374 µM |  | < 0.01 | > 100 | < 0.01 µM and 0.0405 µM |  | < 0.01 µM and 0.0347 µM | > 100 | 0.191 µM and 0.118 µM | > 100 | < 0.01 µM and 0.0134 µM | > 100 | < 0.01 | < 0.01 µM and 0.0309 µM | < 0.01 µM and 0.0611 µM | 86.5 µM and > 56.6 µM | < 0.01 µM and 0.0347 µM | 
CC(=O)N1c2ccccc2Sc2cc(C(O)(C(F)(F)F)C(F)(F)F)ccc21 |  | > 10 |  | > 10 |  | > 10 |  | > 10 |  | > 10 |  | > 10 |  | > 10 |  | > 10 µM |  | > 10 µM |  | > 10
O=C(NOCC1CC1)c1ccc(F)c(F)c1Nc1ccc(I)cc1Cl | 0.0228 | 0.0674 | 3.39 µM | > 100 | 2.55 | > 35.3 | 1.15 µM | 5.83 | 2.99 µM | 19.1 | 1.23 µM | 6.62 | 2.63 µM | 44.6 | 0.298 | > 55.5 µM | 2.7 µM | > 35.1 µM | 0.0704 µM | 3.54
Cc1cc(S(=O)(=O)Nc2nnc(-c3ccccc3)c(-c3ccccc3)n2)c(SCc2ccccc2)cc1Cl | 16.9 | 38.7 | 18.9 µM | 41.8 | 29.6 | > 100 | 17 µM | 33.5 | 23.8 µM | 75.5 | 26 µM | 73.5 | 19.5 µM | 38.5 | 21.7 | 43.3 µM | 14.5 µM | 29.8 µM | 23.6 µM | 48
OCCCCC#Cc1ccccc1C#Cc1ccccc1C(F)(F)F | 14.7 | 37.5 | 17.1 µM | 31.7 | 1.09 | 13.9 | 11.6 µM | 24.4 | 3.91 µM | 17.2 | 11.8 µM | 24.1 | 2.34 µM | 6.7 | 0.847 | 2.75 µM | 10.3 µM | 24.9 µM | 17.7 µM | 33.9
